Patent US12583861B2, “Derivatives of imidazo[4,5-d]pyridazine, their preparation and their therapeutic application” (SANOFI, priority 2021, dated 2026)

Assays:
Type in all cases: cell-based
IFN-α2a = IFN-α2a cytokine activation in human PBMC (MSD assay); details: Homo sapiens, PBMC, 24 h
Protocol: (§1) The other below tests involving measuring the in vitro activity of some compounds of the disclosure on cytokines IFN-α2a, IL-6, IL29 and TNF-α were carried out using human PBMC (PBMCs).
(§2) The activity described below, with respect to TLR7, TLR8, IFN-α2a, IL-6, IL29 and TNF-α, is given by the half maximal effective concentration (EC50), which corresponds to the concentration required to obtain a 50% of the activation. The lower the EC50, the less the concentration of the compound is required to produce 50% of maximum activation and the higher the potency.
(§3) In Vitro Assay to Determine IFN-α2a, IL-6, IL29 and TNF-α Cytokine Activation:
(§4) Peripheral blood mononuclear cells were isolated by Ficoll density gradient centrifugation from peripheral blood samples obtained from healthy donors (EFS). Isolated PBMCs are washed twice with PBS and resuspended in RPMI-1640 medium supplement with 10% fetal bovine serum (FBS) at 5.10^5 cells/well in a 96-well plate. The cells were then incubated with the compounds to test at various doses (20 μM to 4.8.10-6 μM final) for 24 h at 37° C., 5% CO2. After 24 h treatment, the plates are centrifuged and the supernatant were collected and assayed for cytokines IFN-α2a, IL-6, IL29 and TNF-α using the Meso Scale Discovery (MSD) assay platform according to the manufacturer's instructions. Briefly, 25 μL of cell culture supernatants were incubated for 1 h at Room Temperature (RT) in custom Multi-Spot 96-well plates prior coated with capture antibodies. After washing, SULFO-TAG® labeled detection antibodies were added to each of the wells and incubated for 1 h RT before adding a read buffer.

IL-6 = IL-6 cytokine activation in human PBMC (MSD assay); details: Homo sapiens, PBMC, 24 h, read-out: IL6 EC50
Protocol: as §1, §2, §3, §4

IL29 = IL29 cytokine activation in human PBMC (MSD assay); details: Homo sapiens, PBMC, 24 h
Protocol: as §1, §2, §3, §4

TNF-α = TNF-α cytokine activation in human PBMC (MSD assay); details: Homo sapiens, PBMC, 24 h
Protocol: as §1, §2, §3, §4

human TLR7 = target: T1, human TLR7 (Homo sapiens, UniProt Q9NYK1); experiment: HEK-Blue hTLR7 reporter cell assay (SEAP, NF-kB/AP-1) for stimulation of human TLR7; details: HEK-Blue hTLR7 cells, 24 h incubation, SEAP readout; read-out: TLR7_EC50
T1 construct: host or cells: HEK293 (HEK-Blue hTLR7)
T1 sequence (Q9NYK1 27-1049): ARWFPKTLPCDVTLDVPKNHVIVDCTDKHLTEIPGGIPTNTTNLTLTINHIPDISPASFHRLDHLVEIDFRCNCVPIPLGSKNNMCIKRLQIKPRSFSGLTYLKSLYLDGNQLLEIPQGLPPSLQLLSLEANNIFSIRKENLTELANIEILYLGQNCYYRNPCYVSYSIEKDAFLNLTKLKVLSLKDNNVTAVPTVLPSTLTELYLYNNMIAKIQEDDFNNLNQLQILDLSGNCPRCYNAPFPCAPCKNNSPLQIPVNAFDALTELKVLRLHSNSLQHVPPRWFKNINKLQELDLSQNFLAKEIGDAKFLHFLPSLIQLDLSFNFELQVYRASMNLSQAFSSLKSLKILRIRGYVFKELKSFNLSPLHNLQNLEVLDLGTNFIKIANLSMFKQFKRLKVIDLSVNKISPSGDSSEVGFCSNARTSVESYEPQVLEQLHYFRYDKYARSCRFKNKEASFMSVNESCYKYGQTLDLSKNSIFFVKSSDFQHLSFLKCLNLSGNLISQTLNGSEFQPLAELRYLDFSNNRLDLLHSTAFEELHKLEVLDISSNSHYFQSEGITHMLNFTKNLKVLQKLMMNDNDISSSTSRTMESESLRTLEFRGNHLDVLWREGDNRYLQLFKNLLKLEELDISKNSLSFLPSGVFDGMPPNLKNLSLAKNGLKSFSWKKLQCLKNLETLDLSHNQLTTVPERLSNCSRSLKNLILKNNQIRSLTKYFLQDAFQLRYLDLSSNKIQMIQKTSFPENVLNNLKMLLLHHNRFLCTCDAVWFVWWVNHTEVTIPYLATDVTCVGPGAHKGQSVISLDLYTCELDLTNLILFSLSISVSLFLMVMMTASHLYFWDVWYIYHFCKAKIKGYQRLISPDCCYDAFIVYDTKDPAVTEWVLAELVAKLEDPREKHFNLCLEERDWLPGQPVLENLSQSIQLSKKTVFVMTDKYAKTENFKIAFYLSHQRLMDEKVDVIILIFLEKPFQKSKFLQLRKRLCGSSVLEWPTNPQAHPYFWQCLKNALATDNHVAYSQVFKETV
In short: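 HEK293 cells expressing hTLR7 with NF-κB/AP-1-driven SEAP reporter, seeded 3.10E4 cells/well, pre-incubated 18–24 h, then exposed to 3-fold compound dilutions (0.01–20 μM) for 24 h at 37 °C. Supernatant SEAP read with QUANTI-Blue; EC50 as concentration giving 50% activation.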

human TLR8 = target: T2, human TLR8 (Homo sapiens, UniProt Q9NR97); experiment: HEK-Blue hTLR8 reporter cell assay (SEAP, NF-kB/AP-1) for stimulation of human TLR8; details: HEK-Blue hTLR8 cells, 24 h incubation, SEAP readout; read-out: TLR8_EC50
T2 construct: host or cells: HEK293 (HEK-Blue hTLR8)
T2 sequence (Q9NR97 27-1041): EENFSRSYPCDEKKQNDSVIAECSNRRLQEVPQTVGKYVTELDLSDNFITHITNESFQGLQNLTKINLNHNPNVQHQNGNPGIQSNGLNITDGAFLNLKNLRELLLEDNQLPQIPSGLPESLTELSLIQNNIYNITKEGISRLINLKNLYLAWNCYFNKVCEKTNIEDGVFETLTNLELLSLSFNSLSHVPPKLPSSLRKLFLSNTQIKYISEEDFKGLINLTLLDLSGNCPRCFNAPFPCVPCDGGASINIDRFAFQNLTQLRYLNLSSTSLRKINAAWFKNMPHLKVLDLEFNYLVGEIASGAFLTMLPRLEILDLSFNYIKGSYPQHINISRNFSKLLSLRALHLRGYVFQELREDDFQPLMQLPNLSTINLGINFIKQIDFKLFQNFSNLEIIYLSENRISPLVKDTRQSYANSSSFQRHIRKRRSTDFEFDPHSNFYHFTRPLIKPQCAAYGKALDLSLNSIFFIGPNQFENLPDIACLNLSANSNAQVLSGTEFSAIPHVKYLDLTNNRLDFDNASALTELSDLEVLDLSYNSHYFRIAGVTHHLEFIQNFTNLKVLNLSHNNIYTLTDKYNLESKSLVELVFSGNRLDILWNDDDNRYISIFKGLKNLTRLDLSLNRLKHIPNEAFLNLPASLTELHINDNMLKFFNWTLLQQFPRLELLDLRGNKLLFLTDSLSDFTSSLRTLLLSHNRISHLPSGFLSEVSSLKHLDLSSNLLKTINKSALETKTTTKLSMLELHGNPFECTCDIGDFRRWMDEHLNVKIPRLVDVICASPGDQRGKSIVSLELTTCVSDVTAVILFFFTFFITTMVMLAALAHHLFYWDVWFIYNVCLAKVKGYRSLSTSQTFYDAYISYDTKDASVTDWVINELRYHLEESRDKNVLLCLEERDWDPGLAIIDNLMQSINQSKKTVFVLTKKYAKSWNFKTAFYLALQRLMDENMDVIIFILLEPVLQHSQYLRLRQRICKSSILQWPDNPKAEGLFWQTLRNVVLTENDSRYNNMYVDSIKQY
In short: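 HEK293 cells carrying hTLR8 and a SEAP reporter driven by NF-κB/AP-1 sites were seeded at 3.10E4 cells/well and held 18 to 24 h at 37° C., 5% CO2 before compound addition. Supernatant SEAP measured with QUANTI-Blue™.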

SMILES | EC50 (IFN-α2a) | EC50 (IL-6) | EC50 (IL29) | EC50 (TNF-α) | EC50 (human TLR7) | EC50 (human TLR8)
CCCCc1nc2c(N)nnc(N(C)Cc3ccc(CN(C)C)cc3)c2n1C [Compound 43, 2-butyl-N7-(4-((dimethylamino)methyl)benzyl)-N7,1-dimethyl-1H-imidazo[4,5-d]pyridazine-4,7-diamine] | 22 nM | 3 nM | 15 nM | 21 nM | – | –
CCCCc1nc2c(N)nnc(CC(C)C)c2n1Cc1ccc(OC)cc1 [Compound 61, 2-butyl-7-isobutyl-1-(4-methoxybenzyl)-1H-imidazo[4,5-d]pyridazin-4-amine] | – | – | – | – | 1180 nM | > 20 µM
CCCCc1nc2c(N)nnc(NC(C)C)c2n1C [Compound 88, 2-butyl-N7-isopropyl-1-methyl-1H-imidazo[4,5-d]pyridazine-4,7-diamine] | – | – | – | – | 2980 nM | 13.6 µM
CCCCc1nc2c(N)nnc(N3CCCC3)c2n1C[C@H]1CC[C@H](CN)CC1 [Compound 142, 1-(((1R,4R)-4-(aminomethyl)cyclohexyl)methyl)-2-butyl-7-(pyrrolidin-1-yl)-1H-imidazo[4,5-d]pyridazin-4-amine] | – | – | – | – | 2640 nM | > 20 µM

Second part, the compound after the results:

EC50 (IFN-α2a) | EC50 (IL-6) | EC50 (IL29) | EC50 (TNF-α) | EC50 (human TLR7) | EC50 (human TLR8) | SMILES
0.3 nM | 83 nM | 0.3 nM | 2400 nM | 28 nM | – | CCCCc1nc2c(N)nnc(OC(C)C)c2n1C[C@H]1CC[C@H](CN)CC1 [Compound 20]
– | – | – | – | 85 nM | > 20 µM | CCCCc1nc2c(N)nnc(OC(C)C)c2n1Cc1ccc(CNC(C)=O)cc1 [Compound 28, N-(4-((4-amino-2-butyl-7-isopropoxy-1H-imidazo[4,5c]pyridazin-1-yl)methyl)benzyl)acetamide]
– | – | – | – | 205 nM | 0.398 µM | CCCSc1nc2c(N)nnc(OC(C)C)c2n1Cc1ccc(CN)cc1 [Compound 161, 3-[[4-(aminomethyl)phenyl]methyl]-4-isopropoxy-2-propylsulfanyl-imidazo[4,5-d]pyridazin-7-amine]
– | – | – | – | 163 nM | > 6.34 µM | CCCCc1nc2c(N)nnc(OC(C)C)c2n1Cc1ccc(CNC(=O)OCc2ccc(NC(C)=O)cc2)cc1 [Compound 114, 4-acetamidobenzyl (4-((4-amino-2-butyl-7-isopropoxy-1H-imidazo[4,5-d]pyridazin-1-yl)methyl)benzyl)carbamate]
– | – | – | – | 205 nM | > 20 µM | CCCCc1nc2c(N)nnc(OC(C)C)c2n1Cc1ccc(CNC(=O)CCOC)cc1 [Compound 107, N-(4-((4-amino-2-butyl-7-isopropoxy-1H-imidazo[4,5-d]pyridazin-1-yl)methyl)benzyl)-3-methoxypropanamide]
